Test system: MV-4-11 cells
Assay: Gene expression microarray analysis (Affymetrix PrimeView) and GSEA
Type: cell-based, human
Set-up: RFU PODN (11730768_x_at) / Fold change /veh PODN (11730768_x_at) / RFU LINC00158 (11744669_a_at) / Fold change /veh LINC00158 (11744669_a_at) / RFU DUSP10 (11751237_a_at) / Fold change /veh DUSP10 (11751237_a_at) / RFU ID3 (11757404_x_at) / Fold change /veh ID3 (11757404_x_at) / RFU PLEKHG5 (11737974_s_at) / Fold change /veh PLEKHG5 (11737974_s_at) / RFU LRRC4B (11730491_at) / Fold change /veh LRRC4B (11730491_at) / RFU GIMAP4 (11747438_a_at) / Fold change /veh GIMAP4 (11747438_a_at) / RFU KRT8 (11758183_x_at) / Fold change /veh KRT8 (11758183_x_at) / RFU CNN1 (11734310_a_at) / Fold change /veh CNN1 (11734310_a_at) / RFU VPS37D (11726825_at) / Fold change /veh VPS37D (11726825_at) / RFU C10orf10 (11716522_x_at) / Fold change /veh C10orf10 (11716522_x_at) / RFU KIR2DL2 /// KIR2DL4 /// KIR2DL5A /// KIR2DL5B /// KIR2DS1 /// KIR2DS2 /// KIR2DS3 /// KIR2DS4 /// KIR3DL3 /// KIR3DL3 /// KIR3DS1 (11738374_at) / Fold change /veh KIR2DL2 /// KIR2DL4 /// KIR2DL5A /// KIR2DL5B /// KIR2DS1 /// KIR2DS2 /// KIR2DS3 /// KIR2DS4 /// KIR3DL3 /// KIR3DL3 /// KIR3DS1 (11738374_at) / RFU C1QL1 (11718748_at) / Fold change /veh C1QL1 (11718748_at) / RFU TMPRSS4 (11747572_a_at) / Fold change /veh TMPRSS4 (11747572_a_at) / RFU HAMP (11756126_x_at) / Fold change /veh HAMP (11756126_x_at) / RFU RNFT2 (11725882_a_at) / Fold change /veh RNFT2 (11725882_a_at) / RFU NR4A2 (11747474_a_at) / Fold change /veh NR4A2 (11747474_a_at) / RFU ABCC12 (11746883_a_at) / Fold change /veh ABCC12 (11746883_a_at) / RFU TMEM136 (11760407_x_at) / Fold change /veh TMEM136 (11760407_x_at) / RFU CLDN22 /// WWC2 (11732394_at) / Fold change /veh CLDN22 /// WWC2 (11732394_at) / RFU HLA-DPB1 (11760878_x_at) / Fold change /veh HLA-DPB1 (11760878_x_at) / RFU SPINT1 (11716480_a_at) / Fold change /veh SPINT1 (11716480_a_at) / RFU GAP43 (11754022_s_at) / Fold change /veh GAP43 (11754022_s_at) / RFU A4GNT (11735810_at) / Fold change /veh A4GNT (11735810_at) / RFU PRB3 (11715151_x_at) / Fold change /veh PRB3 (11715151_x_at) / RFU TUBB4B (11761932_at) / Fold change /veh TUBB4B (11761932_at) / RFU CAPN14 (11732068_a_at) / Fold change /veh CAPN14 (11732068_a_at) / RFU TMCC2 (11721928_a_at) / Fold change /veh TMCC2 (11721928_a_at) / RFU IRGQ (11745062_a_at) / Fold change /veh IRGQ (11745062_a_at) / RFU FAM174B (11720279_a_at) / Fold change /veh FAM174B (11720279_a_at) / RFU TMPRSS4 (11748680_a_at) / Fold change /veh TMPRSS4 (11748680_a_at) / RFU FAM212B (11763350_a_at) / Fold change /veh FAM212B (11763350_a_at) / RFU PLEKHG5 (11743358_a_at) / Fold change /veh PLEKHG5 (11743358_a_at) / RFU ZSCAN30 (11745921_a_at) / Fold change /veh ZSCAN30 (11745921_a_at) / RFU CMKLR1 (11741424_a_at) / Fold change /veh CMKLR1 (11741424_a_at) / RFU LOC101060620 /// MAPK8IP1 (11723275_at) / Fold change /veh LOC101060620 /// MAPK8IP1 (11723275_at) / RFU SPTSSB (11747773_x_at) / Fold change /veh SPTSSB (11747773_x_at) / RFU PRSS12 (11739890_at) / Fold change /veh PRSS12 (11739890_at) / RFU BIN1 (11741810_x_at) / Fold change /veh BIN1 (11741810_x_at) / RFU WNT11 (11732464_a_at) / Fold change /veh WNT11 (11732464_a_at) / RFU C10orf10 (11716521_a_at) / Fold change /veh C10orf10 (11716521_a_at) / RFU C5orf56 (11738089_at) / Fold change /veh C5orf56 (11738089_at) / RFU CYB561 (11721691_x_at) / Fold change /veh CYB561 (11721691_x_at) / RFU ANKRD19P (11752326_a_at) / Fold change /veh ANKRD19P (11752326_a_at) / RFU OR2T12 /// OR2T33 /// OR2T8 (11738714_s_at) / Fold change /veh OR2T12 /// OR2T33 /// OR2T8 (11738714_s_at) / RFU VCAN (11748164_a_at) / Fold change /veh VCAN (11748164_a_at) / RFU JSRP1 (11732532_at) / Fold change /veh JSRP1 (11732532_at) / RFU KRTAP10-11 (11738290_x_at) / Fold change /veh KRTAP10-11 (11738290_x_at) / RFU MYO3A (11730013_a_at) / Fold change /veh MYO3A (11730013_a_at) / RFU EBF3 (11725865_a_at) / Fold change /veh EBF3 (11725865_a_at) / RFU CAMK2N1 (11719241_x_at) / Fold change /veh CAMK2N1 (11719241_x_at) / RFU C5orf56 (11738088_a_at) / Fold change /veh C5orf56 (11738088_a_at) / RFU OLFML3 (11715873_a_at) / Fold change /veh OLFML3 (11715873_a_at) / RFU LOC100653217 /// NTM (11731650_a_at) / Fold change /veh LOC100653217 /// NTM (11731650_a_at) / RFU MAPK11 (11762145_a_at) / Fold change /veh MAPK11 (11762145_a_at) / RFU FIZ1 (11724087_x_at) / Fold change /veh FIZ1 (11724087_x_at) / RFU OASL (11726364_x_at) / Fold change /veh OASL (11726364_x_at) / RFU SOX15 (11748057_x_at) / Fold change /veh SOX15 (11748057_x_at) / RFU CD79A (11719716_a_at) / Fold change /veh CD79A (11719716_a_at) / RFU HIST1H1D (11736915_at) / Fold change /veh HIST1H1D (11736915_at) / RFU CASKIN2 (11723855_a_at) / Fold change /veh CASKIN2 (11723855_a_at) / RFU LOC730098 (11760151_x_at) / Fold change /veh LOC730098 (11760151_x_at) / RFU OR4N2 (11742367_at) / Fold change /veh OR4N2 (11742367_at) / RFU PRRT2 (11749266_a_at) / Fold change /veh PRRT2 (11749266_a_at) / RFU SNX32 (11753110_a_at) / Fold change /veh SNX32 (11753110_a_at) / RFU CDHR5 (11726645_a_at) / Fold change /veh CDHR5 (11726645_a_at) / RFU RCAN1 (11760418_a_at) / Fold change /veh RCAN1 (11760418_a_at) / RFU FAM167A (11723789_a_at) / Fold change /veh FAM167A (11723789_a_at) / RFU FAM26E (11764081_at) / Fold change /veh FAM26E (11764081_at) / RFU ISYNA1 (11749810_s_at) / Fold change /veh ISYNA1 (11749810_s_at) / RFU ACY1 (11761880_at) / Fold change /veh ACY1 (11761880_at) / RFU 11764098_at / Fold change /veh 11764098_at / RFU SAMD14 (11745864_x_at) / Fold change /veh SAMD14 (11745864_x_at) / RFU NPB (11741838_a_at) / Fold change /veh NPB (11741838_a_at) / RFU TMPRSS6 (11731388_a_at) / Fold change /veh TMPRSS6 (11731388_a_at) / RFU KRTAP10-2 (11738614_at) / Fold change /veh KRTAP10-2 (11738614_at) / RFU ARHGAP8 /// PRR5-ARHGAP8 (11727945_x_at) / Fold change /veh ARHGAP8 /// PRR5-ARHGAP8 (11727945_x_at) / RFU KRTAP5-7 /// NADSYN1 (11734609_at) / Fold change /veh KRTAP5-7 /// NADSYN1 (11734609_at) / RFU RASL12 (11751679_a_at) / Fold change /veh RASL12 (11751679_a_at) / RFU CDKN2B (11736163_a_at) / Fold change /veh CDKN2B (11736163_a_at) / RFU PRF1 (11729649_at) / Fold change /veh PRF1 (11729649_at) / RFU, ZNF638 /// ZNF638-IT1 / Fold change vs veh, ZNF638 /// ZNF638-IT1 / RFU, PANK3 / Fold change vs veh, PANK3 / RFU, SH3YL1 / Fold change vs veh, SH3YL1 / RFU, ZEB2 / Fold change vs veh, ZEB2 / RFU, NRIP1 / Fold change vs veh, NRIP1 / RFU, PTTG1IP / Fold change vs veh, PTTG1IP / RFU, CAPN2 / Fold change vs veh, CAPN2 / RFU, MED14 / Fold change vs veh, MED14 / RFU, SNORA58 / Fold change vs veh, SNORA58 / RFU, C1orf63 / Fold change vs veh, C1orf63 / RFU, LRRFIP1 / Fold change vs veh, LRRFIP1 / RFU, NDUFAF7 / Fold change vs veh, NDUFAF7 / RFU, SLC12A2 / Fold change vs veh, SLC12A2 / RFU, IBTK / Fold change vs veh, IBTK / RFU, ESF1 / Fold change vs veh, ESF1 / Fold change vs veh, TMEM50B / RFU, TAOK1 / Fold change vs veh, TAOK1 / RFU, ACBD3 / Fold change vs veh, ACBD3 / RFU, TMA16 / Fold change vs veh, TMA16 / RFU, RWDD3 / Fold change vs veh, RWDD3 / RFU, BCAT1 / Fold change vs veh, BCAT1 / RFU, EDEM3 / Fold change vs veh, EDEM3 / RFU, TMEM33 / Fold change vs veh, TMEM33 / RFU, WDR75 / Fold change vs veh, WDR75 / RFU, AHCTF1 / Fold change vs veh, AHCTF1 / RFU, TFRC / Fold change vs veh, TFRC / RFU, ZDHHC17 / Fold change vs veh, ZDHHC17 / RFU, NOM1 / Fold change vs veh, NOM1 / RFU, ARL8B / Fold change vs veh, ARL8B / RFU, ZBTB11 / Fold change vs veh, ZBTB11 / RFU, TAMM41 / Fold change vs veh, TAMM41 / RFU, KIAA1704 /// LOC100996395 / Fold change vs veh, KIAA1704 /// LOC100996395 / RFU, ING1 / Fold change vs veh, ING1 / RFU, TRMT61B / Fold change vs veh, TRMT61B / RFU, FUBP3 / Fold change vs veh, FUBP3 / RFU, TP53 / Fold change vs veh, TP53 / RFU, TNKS2 / Fold change vs veh, TNKS2 / RFU, ZFP14 / Fold change vs veh, ZFP14 / RFU, ACTR2 / Fold change vs veh, ACTR2 / RFU, PPP3R1 / Fold change vs veh, PPP3R1 / RFU, PIK3R1 / Fold change vs veh, PIK3R1 / RFU, HNRNPA1 / Fold change vs veh, HNRNPA1 / RFU, RNF170 / Fold change vs veh, RNF170 / RFU, ZNF28 / Fold change vs veh, ZNF28 / RFU, RNGTT / Fold change vs veh, RNGTT / RFU, OGT / Fold change vs veh, OGT / RFU, BRD1 / Fold change vs veh, BRD1 / RFU, MARS / Fold change vs veh, MARS / RFU, ZNF655 / Fold change vs veh, ZNF655 / RFU, FAHD1 / Fold change vs veh, FAHD1 / RFU, BDP1 / Fold change vs veh, BDP1 / RFU, LRRCC1 / Fold change vs veh, LRRCC1 / RFU, ARID1A / Fold change vs veh, ARID1A / RFU, ZNF146 / Fold change vs veh, ZNF146 / RFU, ZNF330 / Fold change vs veh, ZNF330 / RFU, GPN3 / Fold change vs veh, GPN3 / RFU, C9orf123 / Fold change vs veh, C9orf123 / RFU, N4BP2L2 / Fold change vs veh, N4BP2L2 / RFU, ARFIP1 / Fold change vs veh, ARFIP1 / RFU, FAM179B / Fold change vs veh, FAM179B / RFU, BCL10 / Fold change vs veh, BCL10 / RFU, UHRF1BP1L / Fold change vs veh, UHRF1BP1L / RFU, BET1 / Fold change vs veh, BET1 / RFU, CNOT2 / Fold change vs veh, CNOT2 / RFU, ZNF268 / Fold change vs veh, ZNF268 / Fold change vs veh, ZNF507 / RFU, DGCR2 / Fold change vs veh, DGCR2 / RFU, WDSUB1 / Fold change vs veh, WDSUB1 / Fold change vs veh, HSP90B1 /// MIR3652 / RFU, ADSS / Fold change vs veh, ADSS / RFU, GK / Fold change vs veh, GK / RFU, ZNF148 / Fold change vs veh, ZNF148 / RFU, TAF9 / Fold change vs veh, TAF9 / RFU, SLC1A5 / Fold change vs veh, SLC1A5 / RFU, SLMO2 / Fold change vs veh, SLMO2 / RFU, ABCC4 / Fold change vs veh, ABCC4 / RFU, LOC101060439 /// RAP1B / Fold change vs veh, LOC101060439 /// RAP1B / RFU, RFX7 / Fold change vs veh, RFX7 / RFU, GTPBP10 / Fold change vs veh, GTPBP10 / RFU, CNEP1R1 / Fold change vs veh, CNEP1R1 / RFU, BIVM-ERCC5 /// ERCC5 / Fold change vs veh, BIVM-ERCC5 /// ERCC5 / RFU, ILF3 / Fold change vs veh, ILF3 / RFU 11762660_at / Fold change /veh 11762660_at / RFU VCAN (11757783_s_at) / Fold change /veh VCAN (11757783_s_at) / RFU DDX43 (11728927_at) / Fold change /veh DDX43 (11728927_at) / RFU KRT8 (11758188_x_at) / Fold change /veh KRT8 (11758188_x_at) / RFU NKD1 (11759106_at) / Fold change /veh NKD1 (11759106_at) / RFU SRD5A1 (11742802_a_at) / Fold change /veh SRD5A1 (11742802_a_at) / RFU TPSAB1 /// TPSB2 (11721975_s_at) / Fold change /veh TPSAB1 /// TPSB2 (11721975_s_at) / RFU GSTM3 (11746129_a_at) / Fold change /veh GSTM3 (11746129_a_at) / RFU IL23R (11737362_x_at) / Fold change /veh IL23R (11737362_x_at) / RFU TMEM51 (11727254_a_at) / Fold change /veh TMEM51 (11727254_a_at) / RFU PIWIL2 (11732686_x_at) / Fold change /veh PIWIL2 (11732686_x_at) / RFU ORM1 (11744905_x_at) / Fold change /veh ORM1 (11744905_x_at) / RFU CCDC152 (11743942_at) / Fold change /veh CCDC152 (11743942_at) / RFU ECM1 (11717891_a_at) / Fold change /veh ECM1 (11717891_a_at) / RFU IL23R (11748794_a_at) / Fold change /veh IL23R (11748794_a_at) / RFU TNFAIP8L3 (11732012_x_at) / Fold change /veh TNFAIP8L3 (11732012_x_at) / RFU MBOAT4 (11741988_at) / Fold change /veh MBOAT4 (11741988_at) / RFU 11764193_at / Fold change /veh 11764193_at / RFU TMEM53 (11763286_at) / Fold change /veh TMEM53 (11763286_at) / RFU MAGEB2 (11727129_at) / Fold change /veh MAGEB2 (11727129_at) / RFU TMEM200A (11744735_a_at) / Fold change /veh TMEM200A (11744735_a_at) / RFU CCDC152 (11751479_a_at) / Fold change /veh CCDC152 (11751479_a_at) / RFU FAM211A (11726209_a_at) / Fold change /veh FAM211A (11726209_a_at) / RFU RGS16 (11746705_a_at) / Fold change /veh RGS16 (11746705_a_at) / RFU VCAN (11755009_s_at) / Fold change /veh VCAN (11755009_s_at) / RFU RHOB (11743442_s_at) / Fold change /veh RHOB (11743442_s_at) / RFU RGS16 (11720943_a_at) / Fold change /veh RGS16 (11720943_a_at) / RFU RGS16 (11720944_at) / Fold change /veh RGS16 (11720944_at) / RFU, VPS4B / Fold change vs veh, VPS4B / RFU, CREB1 / Fold change vs veh, CREB1 / RFU, DNAJC13 / Fold change vs veh, DNAJC13 / RFU, GNAQ / Fold change vs veh, GNAQ / RFU, CDK5R1 / Fold change vs veh, CDK5R1 / RFU, ZRANB3 / Fold change vs veh, ZRANB3 / RFU, CUL4A / Fold change vs veh, CUL4A / RFU, CCNY / Fold change vs veh, CCNY / RFU, UFL1 / Fold change vs veh, UFL1 / RFU, COG3 / Fold change vs veh, COG3 / RFU, DIAPH2 / Fold change vs veh, DIAPH2 / RFU, SKA2 / Fold change vs veh, SKA2 / RFU, AFF3 / Fold change vs veh, AFF3 / RFU, LMF1 / Fold change vs veh, LMF1 / RFU, IPO11 / Fold change vs veh, IPO11 / RFU, DFFB / Fold change vs veh, DFFB / RFU, FOXP1 / Fold change vs veh, FOXP1 / RFU, CARD8 / Fold change vs veh, CARD8 / RFU, STRN3 / Fold change vs veh, STRN3 / RFU, ADK / Fold change vs veh, ADK / RFU, RASSF2 / Fold change vs veh, RASSF2 / RFU, WIPF1 / Fold change vs veh, WIPF1 / RFU, LARP1B / Fold change vs veh, LARP1B / RFU, RASA1 / Fold change vs veh, RASA1 / RFU, RB1 / Fold change vs veh, RB1 / RFU, PPFIA1 / Fold change vs veh, PPFIA1 / RFU, MAT2A / Fold change vs veh, MAT2A / RFU, CCT5 / Fold change vs veh, CCT5 / RFU, WDR92 / Fold change vs veh, WDR92 / RFU, CUX1 / Fold change vs veh, CUX1 / RFU, TTC7A / Fold change vs veh, TTC7A / RFU, TMEM135 / Fold change vs veh, TMEM135 / RFU, DEPTOR / Fold change vs veh, DEPTOR / RFU, CPM / Fold change vs veh, CPM / RFU, DNAJB6 / Fold change vs veh, DNAJB6 / RFU, CACNA2D3 / Fold change vs veh, CACNA2D3 / RFU, DTX4 / Fold change vs veh, DTX4 / RFU, TFCP2 / Fold change vs veh, TFCP2 / RFU, GMCL1 /// GMCL1P1 / Fold change vs veh, GMCL1 /// GMCL1P1 / RFU, AEBP2 / Fold change vs veh, AEBP2 / RFU, SNHG1 /// SNORD22 /// SNORD25 /// SNORD26 /// SNORD27 /// SNORD28 /// SNORD29 /// SNORD31 / Fold change vs veh, SNHG1 /// SNORD22 /// SNORD25 /// SNORD26 /// SNORD27 /// SNORD28 /// SNORD29 /// SNORD31 / Fold change (Aza/veh), C12orf56 (ProbeSet 11735607_a_at) / Fold change (ACY-1035/veh), C12orf56 (ProbeSet 11735607_a_at) / Fold change (Aza/veh), FGFR1OP (ProbeSet 11751329_s_at) / Fold change (ACY-1035/veh), FGFR1OP (ProbeSet 11751329_s_at) / Fold change (Aza/veh), VPS36 (ProbeSet 11739960_a_at) / Fold change (ACY-1035/veh), VPS36 (ProbeSet 11739960_a_at) / RFU SYPL1 (11715823_x_at) / Fold change /veh SYPL1 (11715823_x_at) / RFU IGFBP7 (11715501_s_at) / Fold change /veh IGFBP7 (11715501_s_at) / RFU REEP3 (11722064_at) / Fold change /veh REEP3 (11722064_at) / RFU IGLL1 (11728026_x_at) / Fold change /veh IGLL1 (11728026_x_at): dose or concentration left out as unconfirmed
Settings: MV-4-11 cells, 48 hours

Nc1ncn([C@@H]2O[C@H](CO)[C@@H](O)[C@H]2O)c(=O)n1 [azacitidine]
RFU FAM26E (11764081_at): 5.32 RFU
